Experiments:
NF-κB = experiment: NF-κB-Luciferase reporter assay in THP-1 NF-κB-Lucia cells; assay type: cell-based, human
Procedure: NF-κB-Luciferase reporter assay. THP-1 NF-κB-Lucia cells were plated at 10,000 cells per well with 10 ng/mL PMA. Three days later, media was removed and replaced with media containing LPS (1 μg/mL) and dilution series of compounds in flat bottom clear 96-well plates for 24 hours. A day later, 20 μL of media was transferred to a 96-well white plate and 50 μL of QuantiLuc Gold reagent (InvivoGen rep-qlcg5) was added per well; plate was mixed in the plate reader and luminescence was read using a Promega GloMax Reader.

IκBα = experiment: Immunoblot of IκBα and pIκB S32 in inflamed astrocytes; assay type: cell-based, human; settings: 6 hours
Procedure: Western blotting. For drug treatment assays, cells were treated with vehicle (DMSO) or 20 μM compound and stimulated with IL1B 10 ng/mL for 1 h, 6 h, or 24 h. Cells were dissociated with 1:1 Accutase:papain for 3 min at rt, pelleted for 5 min at 800 g, and washed twice with cold DPBS. Pellets were lysed with RIPA buffer (Sigma R^0278) supplemented with Halt protease inhibitor cocktail (Thermo Fisher 78445) and clarified by centrifugation (16,000 g, 10 min, 4° C.). Protein concentration was determined by BCA assay (Thermo Fisher). Proteins were denatured in 1×LDS Buffer and 2.5% beta-mercaptoethanol (Sigma) for 10 min at 70° C., separated on Bolt 4-12% Bis-Tris Plus polyacrylamide gels (Thermo Fisher), transferred to PVDF membranes using the iBlot 2 Dry Blotting System, and blocked with 0.1% casein-PBS (Bio-Rad) for 1 h at room temperature. The blots were incubated with primary antibodies overnight at 4° C. in PBS containing 0.1% casein and 0.2% Tween-20. […] The blots were imaged using the Odyssey CLx imaging system and blots were analyzed on the ImageStudio software (LI-COR).

phosphorylated NF-κB = experiment: pNF-κB immunoblot in AD patient-derived astrocytes; assay type: cell-based, human; settings: 5 h treatment
tau phosphorylation = experiment: Tau phosphorylation in induced neurons (iNs); assay type: cell-based; settings: FIG. 14
CK2α1 = CK2α1 (Homo sapiens, UniProt P68400); experiment: Thermal shift assay followed by Western blotting; assay type: binding; parameters: endogenous in cells; settings: astrocyte lysates
Procedure: Thermal shift assay and TPP. Experiments were performed as previously described (Franken et al., Nature Protocols 2015, 10:1567-1593; Reinhard et al., Nature Methods 2015, 12:1129-1131). 45 million H1-derived astrocytes were activated with 10 ng/mL IL1b for 6 h, dissociated with 1:1 Accutase/papain (3 min rt), and centrifuged at 1,800 rpm for 2 min at 4 C. The pellet was washed twice with 10 mL cold DPBS, lysed in 2.25 mL DPBS and 0.4% v/v NP-40 by freeze-thawing 3×, and clarified by centrifugation (20,000 g, 30 min, 4° C.). Protein concentration was determined by BCA assay (Bio-Rad), and lysates were diluted to 2 mg/mL. […] Reactions were incubated at rt for 30 min, after which each treated extract was divided into 10 aliquots of 95 μL in PCR strip tubes and stored on ice. Each group of treated samples was heated for 3 min at predesignated temperatures (3×10 temperatures), then kept for 3 min at rt before ultracentrifugation (20 min at 4° C., 100,000 g) in 200 μL polycarbonate tubes (Beckman Coulter #343775). Designated temperatures were 37, 41.1, 43.6, 46.9, 50, 53.7, 56, 59.5, 63, and 67° C. A small aliquot (5 μL) of supernatant was saved for Western blotting, and the rest was snap frozen at −80 C and submitted for LC-MS/MS.

CK2α1, sequence (P68400 whole entry): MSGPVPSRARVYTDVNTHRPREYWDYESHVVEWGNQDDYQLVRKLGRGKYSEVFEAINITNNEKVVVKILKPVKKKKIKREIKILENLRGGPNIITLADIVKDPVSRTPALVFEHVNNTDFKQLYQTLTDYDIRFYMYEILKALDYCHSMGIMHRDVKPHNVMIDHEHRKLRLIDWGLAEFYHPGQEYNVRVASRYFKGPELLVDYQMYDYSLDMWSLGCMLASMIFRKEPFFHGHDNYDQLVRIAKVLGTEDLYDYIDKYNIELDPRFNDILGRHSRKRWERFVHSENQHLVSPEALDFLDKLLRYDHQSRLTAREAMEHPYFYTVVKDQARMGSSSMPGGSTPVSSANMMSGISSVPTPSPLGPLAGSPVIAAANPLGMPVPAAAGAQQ

COc1cc(-c2cc(=O)c3c(O)cc(O)cc3o2)ccc1O [CHR, Chrysoeriol]
IC50 (NF-κB; Homo sapiens, THP-1, FIG. 5B, read-out: IC50 in THP-1 monocyte NF-κB-Luciferase reporter cells): < 4 µM | SAR summary: activity in NF-κB reporter assay and for CK2 kinase inhibition (NF-κB; at 20 μM, FIG. 5A, some values sourced from Baier et al. (2017) and Lolli et al. (2012)): active | IκBα levels (IκBα): dose-dependently boosted | phosphorylated IκB S32 (IκBα): remained unchanged | Elevated phosphorylated NF-κB in AD astrocytes (phosphorylated NF-κB): reduced | Tau phosphorylation (tau phosphorylation): reduces | Thermal stabilization of CK2α1 (CK2α1): dose-dependently stabilized
